Source: patent publication WO2005063245A1, “Composition for lowering blood pressure” (priority 2003, dated 2005)
Like-named read-outs stand apart in the source and are kept apart here.

Experiments:
[1] = Non-Patent Document 4; cited from earlier work
[2] = Blood pressure lowering effect of samples (31)-(38) in SHR rats, same manner as Test example 6 (Table 11); type: in vivo, rat; settings: oral
[3] = rats, intraperitoneal; Non-Patent Documents 5 and 6; cited from earlier work
[4] = Oral administration experiment with SHR rats (summary statement); type: in vivo, rat
[5] = Test example 6: test of blood pressure lowering effect using SHR rats, samples (16)-(30) (Table 9); type: in vivo, rat; settings: oral, mean ± SE, dose mg/kg: 17: 500, 18: 1.5, 19: 3.0, 20, 21, 24, 26, 27, 28, 30: 50, 22, 23: 20, 25, 29: 100
[6] = n=5, 0 h (before administration), mean ± SE, dose mg/kg: 32, 33, 35, 36, 37: 20, 34: 23.4, 38: 32.4
[7] = n=5, 2 h after administration, mean ± SE, dose mg/kg: 32, 33, 35, 36, 37: 20, 34: 23.4, 38: 32.4
[8] = n=5, 4 h after administration, mean ± SE, dose mg/kg: 32, 33, 35, 36, 37: 20, 34: 23.4, 38: 32.4
[9] = n=5, column after 4 h, time not printed in this copy (line cut), dose mg/kg: 32, 33, 35, 36, 37: 20, 34: 23.4, 38: 32.4

Compound	systolic blood pressure [2, 6]	systolic blood pressure [2, 7]	systolic blood pressure [2, 8]	systolic blood pressure [2, 9]	blood pressure during systole and diastole ([4]; SHR rats, oral administration)	effect on heart rate ([4]; SHR rats, oral administration)	further results
N=C(N)NCCC[C@H](N)C(=O)O [Sample 22, Arginine]	–	–	–	–	–	–	blood pressure lowering effect [1]: blood pressure lowering effect in systole and diastole; heart rate [1]: increase in heart rate
N[C@@H](Cc1ccc(O)cc1)C(=O)O [Sample 38, Tyrosine, reference compound]	189±1.7	161 ±1.8	159±1.1	169	–	–	blood pressure lowering effect [3]: blood pressure lowering effect
N[C@@H](Cc1c[nH]c2ccccc12)C(=O)O [L-tributophan]	–	–	–	–	–	–	blood pressure lowering effect [3]: blood pressure lowering effect
N[C@@H](CO)C(=O)O [Sample 36, Serine]	–	164±1.4	158±3.7	172	significantly reduce blood pressure during systole and diastole	–	systolic blood pressure ([2]; n=5, 0 h (before administration), mean ± SE, dose mg/kg: 32, 33, 35, 36, 37: 20, 34: 23.4, 38: 32.4, in mmHg): 190+2.0; effect on heart rate ([4]; rat, in vivo, po): without affecting the heart rate
CC[C@H](C)[C@H](N)C(=O)O [Sample 20, Isoleucine]	–	163±2.5	162+2.6	180	significantly reduce blood pressure during systole and diastole	without affecting the heart rate	–
CC(C)C[C@H](N)C(=O)O [Sample 21, Leucine]	189±1.7	162±1.0	162±2.7	174	significantly reduce blood pressure during systole and diastole	–	effect on heart rate ([4]; rat, in vivo, po): without affecting the heart rate
bovine serum albumin [Sample 17]	–	–	–	–	–	–	systolic blood pressure ([5]; n=5, 0 h (before administration)): 186 + 2.2 mmH; systolic blood pressure ([5]; n=5, 2 h after administration): 169 + 1.8 mmH; systolic blood pressure ([5]; n=5, 4 h after administration): 170 ± 0.5 mmH
N[C@@H](CCC(=O)[O-])C(=O)[O-].[Na+].[Na+] [Sample 25, Sodium glutamate]	–	165±2.	–	177	–	–	–
N[C@@H](CCC(=O)O)C(=O)O [glutamic acid]	–	–	–	–	significantly reduce blood pressure during systole and diastole	without affecting the heart rate	–
N[C@@H](Cc1c[nH]cn1)C(=O)O [Sample 23, Histidine]	186+1.7	152+3.3	157±1.6	171	significantly reduce blood pressure during systole and diastole	without affecting the heart rate	–
N[C@@H](Cc1ccccc1)C(=O)O [Sample 37, phenylalanine]	191±1.5	–	165±1.7	175	significantly reduce blood pressure during systole and diastole	without affecting the heart rate	–
